# Test results as given in the NIST ThermoML archive (doi:10.1016/j.jct.2016.10.013).
# ± gives the expanded uncertainty stated by the source.
# How the values were obtained:
# [1] = refractive index (Na D-line) (dimensionless); settings: 293.15 K; 101.33 kPa; Liquid; Standard Abbe refractometry
# [2] = activity coefficient (dimensionless); of the first substance listed, at infinite dilution; xn = mol fraction of the nth substance listed; settings: 101.33 kPa, Liquid, Chromatography, x1 = 0
# [3] = 288.15 K; 101.33 kPa; Liquid; Vibrating tube method
SMILES,refractive index [1],activity coefficient ([2]; 303.15 K),activity coefficient ([2]; 313.15 K),activity coefficient ([2]; 323.15 K),activity coefficient ([2]; 304.15 K),mass density [3]
"OCCO [1,2-ethanediol]",1.4319 ± 0.0004,,,,,
C=CCCCCC [1-heptene] + OCCO,,570 ± 26,503 ± 23,452 ± 20,,
C=CCCCCC [1-heptene] + OCCOCCO,,,77.8 ± 3.5,73.4 ± 3.3,84 ± 3.8,
C=CCCCCCCC [1-nonene] + OCCO,,1610 ± 73,1300 ± 59,1170 ± 53,,
C=CCCCCCCC [1-nonene] + OCCOCCO,,,174 ± 8,159 ± 7,188 ± 8,
C1CCCCC1 [cyclohexane] + OCCO,,270 ± 12,238 ± 11,212 ± 10,,
C1CCCCC1 [cyclohexane] + OCCOCCO,,,46.7 ± 2.1,43.5 ± 1.9,50.6 ± 2.3,
C1CCCC1 [cyclopentane] + OCCO,,163 ± 7,149 ± 7,133 ± 6,,
C1CCCC1 [cyclopentane] + OCCOCCO,,,31.6 ± 1.4,30.1 ± 1.3,33.8 ± 1.5,
OCCOCCO [diethylene glycol],1.4472 ± 0.0004,,,,,1120.3 ± 2 kg/m3
CCCCCCC [heptane] + OCCO,,1200 ± 54,1030 ± 47,860 ± 39,,
CCCCCCC [heptane] + OCCOCCO,,,151 ± 7,140 ± 6,174 ± 8,
C=CCCCC [hex-1-ene] + OCCO,,330 ± 15,298 ± 13,272 ± 12,,
C=CCCCC [hex-1-ene] + OCCOCCO,,,52.4 ± 2.3,50.2 ± 2.2,56.3 ± 2.5,
CCCCCC [hexane] + OCCO,,716 ± 32,620 ± 28,543 ± 25,,
CCCCCC [hexane] + OCCOCCO,,,102 ± 5,94.2 ± 4.2,112 ± 5,
CC1CCCCC1 [methylcyclohexane] + OCCO,,473 ± 21,407 ± 18,370 ± 17,,
CC1CCCCC1 [methylcyclohexane] + OCCOCCO,,,71.1 ± 4.9,66 ± 4.5,77.2 ± 5.3,
CCCCCCCCC [nonane] + OCCO,,2960 ± 140,2320 ± 110,1970 ± 90,,
CCCCCCCCC [nonane] + OCCOCCO,,,329 ± 15,295 ± 13,371 ± 17,
C=CCCCCCC [oct-1-ene] + OCCO,,962 ± 44,819 ± 37,736 ± 33,,
C=CCCCCCC [oct-1-ene] + OCCOCCO,,,116 ± 5,108 ± 5,126 ± 6,
CCCCCCCC [octane] + OCCO,,1960 ± 89,1600 ± 73,1340 ± 61,,
CCCCCCCC [octane] + OCCOCCO,,,223 ± 10,203 ± 9,249 ± 11,
CCCCC [pentane] + OCCO,,436 ± 20,389 ± 18,338 ± 15,,
CCCCC [pentane] + OCCOCCO,,,70.5 ± 3.1,66.4 ± 3,74.1 ± 3.3,
